Measured values as given in US20150150768A1, “Furan Based Composition” (Los Alamos National Security LLC, priority 2013, published 2015).
Like-named read-outs stand apart in the source and are kept apart here.

Columns and labels:
[1] = Solubility of system at 1 wt % with hardness; format: physicochemical
Source text: Stock solutions of all species were made at 1% by weight in deionized water. […] […] […] Additionally a modified LAS (MLAS) was chosen for comparison.

[2] = Dynamic interfacial tension analysis (dIFT), ascending canola oil drop in aqueous surfactant solution; format: physicochemical; conditions: 200 ppm surfactant, pH 8.3-8.5, canola oil
Protocol: Method—Dynamic Interfacial Tension Analysis (dIFT) Dynamic Interfacial Tension analysis was performed on a Krüss® DVT30 Drop Volume Tensiometer (Krüss USA, Charlotte, N.C.). The instrument was configured to measure the interfacial tension of an ascending oil drop in the aqueous surfactant solution. The oil used was canola oil (Crisco Pure Canola Oil manufactured by The J.M. Smucker Company). The aqueous surfactant and oil phases were temperature controlled at 21.1° C. (+/−1° C.), via a recirculating water temperature controller attached to the tensiometer. A dynamic interfacial tension curve was generated by dispensing the oil drops into the aqueous surfactant phase from an ascending capillary with an internal diameter of 0.2540 mm, over a range of flow rates and measuring the interfacial tension at each flow rate. Data is generated at oil dispensing flow rates of 500 μL/min to 1 μL/min with 2 flow rates per decade on a logarithmic scale (7 flow rates measured in this instance). Interfacial tension was measured on three oil drops per flow rate and then averaged. Interfacial tension was reported in units of mN/m. Surface age of the oil drops at each flow rate is also recorded and plots can be generated either of interfacial tension (y-axis) versus oil flow rate (x-axis) or interfacial tension (y-axis) versus oil drop surface age (x-axis). […] Example of analysis of a 200 ppm surfactant concentration, with water hardness (3:1 Ca:Mg) of 6 or 20 grains per gallon (gpg) as noted, 21.1° C., pH 8.3-8.5: Sample was analyzed as described above. Density settings for 21.1° C. were set at 0.917 g/ml for Canola Oil and 0.998 g/ml for aqueous surfactant phase (assumed to be the same as water since dilute solution). To a 100 ml volumetric flask was added 2.00 mL of 1% (wt/wt) Surfactant solution in deionized water and the volumetric is then filled to the mark with 6.12 gpg water for target 6 gpg solution or 20.408 gpg water for target 20 gpg solution, (3:1 CaCl2:MgCl2 solution) and mixed well. The solution was transferred to a beaker and the pH adjusted to 8.3-8.5 by addition of a few drops of 0.1 N NaOH or 0.1 N H2SO4. The solution is then loaded into the tensiometer measurement cell and analyzed. Total time from addition of hardness to surfactant to time loaded into tensiometer is 5 minutes. The following surfactants were analyzed via dIFT measurements. Surfactants were analyzed at a level of 200 ppm. Analysis conditions are in water of both 6 and 20 gpg Calcium/Magnesium water hardness level (3:1 calcium:magnesium), 21.1° C. and adjusted to pH 8.3-8.5.

[3] = 1% solution by weight in deionized water
[4] = 1% solution by weight in deionized water, heated to approximately 55° C.
[5] = aliquot of 1% solution diluted to 200 ppm with 6.122 gpg water
[6] = solution hardness 6 gpg (3:1 Calcium:Magnesium)
[7] = solution hardness 20 gpg (3:1 Calcium:Magnesium)

Molecule | IFT @ 1 μL/min Oil Flowrate, 21.1° C. [2, 6] [mN/m] | IFT @ 1 μL/min Oil Flowrate, 21.1° C. [2, 7] [mN/m] | Soluble after addition of 6 gpg hardness (for at least 30 minutes) [1] | Soluble after heating to ≈55° C. [1] | Soluble at Room Temperature [1] | Soluble at Room Temperature [1, 3] | Soluble after heating to ≈55° C. [1, 4] | Soluble after addition of 6 gpg hardness (for at least 30 minutes) [1, 5]
CCCCCCCCCCCCc1ccc(S(=O)(=O)[O-])o1.[Na+] [C12 1-furan AFS, sodium 5-dodecanfuran-2-sulfonate] | 0.31 | 0.25 | – | – | – | – | – | –
CCCCCCCCCCC(C)c1ccc(S(=O)(=O)O)cc1 (centres unmarked) [C12 2-phenyl LAS, reference compound] | – | – | – | – | – | No | Yes | did not remain soluble and No
sodium 5-dodecanfuran-2-sulfonate [C12 1-furan AFS] | – | – | – | – | – | No | Yes | Yes

Further lines, with some results ahead:

IFT @ 1 μL/min Oil Flowrate, 21.1° C. [2, 6] [mN/m] | IFT @ 1 μL/min Oil Flowrate, 21.1° C. [2, 7] [mN/m] | Soluble after addition of 6 gpg hardness (for at least 30 minutes) [1] | Soluble after heating to ≈55° C. [1] | Soluble at Room Temperature [1] | Molecule | Soluble at Room Temperature [1, 3] | Soluble after heating to ≈55° C. [1, 4] | Soluble after addition of 6 gpg hardness (for at least 30 minutes) [1, 5]
7.25 | 4.03 | – | – | – | CCCCCCCCCC(C)c1ccc(S(=O)(=O)[O-])o1.[Na+] (centres unmarked) [C11 2-furan AFS, sodium 5-(undecan-2-yl)furan-2-sulfonate] | Yes | Yes | Yes
1.15 | 0.94 | – | – | – | CCCCCCCCCCC(C)c1ccc(S(=O)(=O)[O-])o1.[Na+] (centres unmarked) [C12 2-furan AFS, sodium 5-(dodecan-2-yl)furan-2-sulfonate] | Yes | Yes | Yes
0.08 | 0.08 | Yes | Yes | No | CCCCCCCCCCCCCc1ccc(S(=O)(=O)[O-])o1.[Na+] [C13 1-furan AFS, sodium 5-tridecanfuran-2-sulfonate] | – | – | –
